{"source": "patent US10765680B2", "about": "“Combination of a MCL-1 inhibitor and a taxane compound, uses and pharmaceutical compositions thereof” (priority 2017, dated 2020)", "key": {"[1]": {"tested_on": "BT-474 breast cancer cell line", "assay": "72 hours CellTiter-Glo proliferation assay, BT-474", "assay_type": "cell-based", "details": "single agent, read-out: Abs IC50", "procedure": "(§1) Compounds were dissolved in 100% DMSO (Sigma, Catalog # D2438-50 ML) at a stock concentration of 10 mM and stored at −20° C. until use. Compounds were arrayed in 2 ml deep 96-well plates (Greiner bio-one, catalog number 780271) serially diluted 3-fold. Compound 1 was used over a concentration range of 0.0-10.0 μM. Paclitaxel was used over a concentration range of 0.0-1.0 μM in breast cancer cells and 0.0-2.0 μM range in lung cancer cells.\n(§2) All cell lines were purchased from the American Type Culture Collection and cultured according to vendor recommendations. […] All cell lines were determined to be free of mycoplasma contamination by a PCR detection assay performed at Idexx Radil (Columbia, Mo., USA) and authenticated by SNP analysis. […] Cells were expanded to T-75 flasks and assessed for viability using a Beckman-Coulter ViCell counter prior to plating. […]\n(§3) Cell proliferation was measured in 72 hours CellTiter-Glo™ (CTG) assays and all results shown are the result of at least triplicate measurements. […] After 72 hours of compound treatment the effects of compounds on cell proliferation was determined using the CellTiter-Glo™ Luminescent Cell Viability Assay (Promega, Catalog # G7573). This is a homogeneous method to determine the number of viable cells in culture based on quantitation of the ATP present, which signals the presence of metabolically active cells. […]"}, "[2]": {"tested_on": "HCC38 breast cancer cell line", "assay": "72 hours CellTiter-Glo proliferation assay, HCC38", "assay_type": "cell-based", "details": "single agent, read-out: Abs IC50", "procedure": "as §1, §2, §3"}, "[3]": {"tested_on": "HCC70 breast cancer cell line", "assay": "72 hours CellTiter-Glo proliferation assay, HCC70", "assay_type": "cell-based", "details": "single agent, read-out: Abs IC50", "procedure": "as §1, §2, §3"}, "[4]": {"tested_on": "MDA-MB-453 breast cancer cell line", "assay": "72 hours CellTiter-Glo proliferation assay, MDA-MB-453", "assay_type": "cell-based", "details": "single agent, read-out: Abs IC50", "procedure": "as §1, §2, §3"}, "[5]": {"tested_on": "TNBC 110T PDX model", "assay": "TNBC 110T PDX model, tumor growth and survival (Compound 1, docetaxel)", "assay_type": "in vivo, NOD-SCID-IL2Rγc−/− female mice", "details": "Compound 1 15 mg/kg i.v. twice weekly for six weeks", "procedure": "A cohort of 40 female NSG mice was seeded with thawed single cell suspensions of early passage human breast tumors (TNBC PDX110). Briefly, 100,000 cells were resuspended in 10 μl of transplantation buffer (50% fetal calf serum, 10% of a 0.04% trypan blue solution and 40% PBS) and growth-factor-reduced Matrigel [BD] at a ratio of 3:1, and injected into the cleared mammary fat pads of 3- or 4-week-old NOD-SCID-IL2Rγc^−/− female mice. […] Once tumors reached a volume of 60-110 mm^3, mice were randomized into treatment arms and treatment commenced. Docetaxel or its vehicle was prepared by dissolving stock solution (20 mg/ml) with PBS and injected i.p. every 21 days for two treatment cycles. The duration of therapy is indicated by the bar. […] Compound 1 (15 mg/kg) or its vehicle was injected i.v. twice weekly for six weeks. Mice were sacrificed at the first measurement where tumor volume exceeded 600 mm^3, or if their health deteriorated for reasons other than disease progression or drug toxicity (censored event). n=9-10 mice per treatment group."}, "[6]": {"tested_on": "TNBC PDX model OD-BRE-00589", "assay": "TNBC PDX model OD-BRE-00589, antitumor activity", "assay_type": "in vivo, female SCID mice", "details": "Compound 1 70 mg/kg iv once, liposomal formulation", "procedure": "Docetaxel was formulated in 5% ethanol, 5% PS80 and 90% Glucose at 0.67 mg/ml to administer 10 mg/kg. […] OD-BRE-00589 is a triple negative breast cancer PDX, obtained from the IMODI consortium. […] It was grafted on SCID mice as fragments of 27 mm^3 volume. […] The administrations were performed once in the caudal vein."}}}
{"smiles": "COc1ccccc1-c1nccc(COc2ccccc2C[C@@H](Oc2ncnc3sc(-c4ccc(F)cc4)c(-c4ccc(OCCN5CCN(C)CC5)c(Cl)c4C)c23)C(=O)O)n1", "note": "[Compound 1, (2R)-2-{[(5Sa)-5-{3-chloro-2-methyl-4-[2-(4-methylpiperazin-1-yl)ethoxy]phenyl}-6-(4-fluorophenyl)thieno[2,3-d]pyrimidin-4-yl]oxy}-3-(2-{[2-(2-methoxyphenyl)pyrimidin-4-yl]methoxy}phenyl)propanoic acid]", "values": [{"measurement": "IC50", "setting": "[1]", "value": 1.26, "unit": "µM"}, {"measurement": "IC50", "setting": "[2]", "value": 3.39, "unit": "µM"}, {"measurement": "IC50", "setting": "[3]", "value": 0.704, "unit": "µM"}, {"measurement": "IC50", "setting": "[4]", "value": "> 10", "unit": "µM"}, {"measurement": "inhibition of tumor growth, single agent", "setting": "[5]", "value": "insufficient in inhibiting tumor growth"}, {"measurement": "inhibition of tumor growth, single agent", "setting": "[6]", "value": "insufficient in inhibiting tumor growth"}]}
